Test results as given in ChEMBL document CHEMBL1201862, “PubChem BioAssay data set” (2004).
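Test compounds were applied to cells in 96-well plates for 48 hours at 5 doses. At the GI50, growth is halved.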 Activity calls are given as the source filed them. Cut-off read from the data, not from the text of the source: active = GI50 up to about 1.1 µM and inactive = higher.

Columns and labels:
Test in all cases: NCI tumour cell line growth inhibition, 48 h
CAKI-1 = system: CAKI-1
NCI-H460 = system: NCI-H460
KM12 = system: KM12
SNB-19 = system: SNB-19
UACC-62 = system: UACC-62
SK-MEL-5 = system: SK-MEL-5
NCI/ADR-RES = system: NCI/ADR-RES
HCT-116 = system: HCT-116
RXF 393 = system: RXF 393
UACC-257 = system: UACC-257
HCT-15 = system: HCT-15
MDA-MB-231 = system: MDA-MB-231
MDA-MB-435 = system: MDA-MB-435
OVCAR-4 = system: OVCAR-4
UO-31 = system: UO-31
NCI-H226 = system: NCI-H226
HOP-62 = system: HOP-62
SN12C = system: SN12C
NCI-H23 = system: NCI-H23
A498 = system: A498

| SMILES | GI50 (CAKI-1) | GI50 (NCI-H460) | GI50 (KM12) | GI50 (SNB-19) | GI50 (UACC-62) | GI50 (SK-MEL-5) | GI50 (NCI/ADR-RES) | GI50 (HCT-116) | GI50 (RXF 393) | GI50 (UACC-257) | GI50 (HCT-15) [µM] | GI50 (MDA-MB-231) | GI50 (MDA-MB-435) | GI50 (OVCAR-4) | GI50 (UO-31) | GI50 (NCI-H226) | GI50 (HOP-62) | GI50 (SN12C) | GI50 (NCI-H23) | GI50 (A498) |
| --- | --- | --- | --- | --- | --- | --- | --- | --- | --- | --- | --- | --- | --- | --- | --- | --- | --- | --- | --- | --- |
| Cc1cc(S(=O)(=O)Nc2nc3ccccc3n2-c2ccccc2)c(S)cc1Cl | > 100 µM (inactive) | 56.5 µM (inactive) | > 100 µM (inactive) | 82.2 µM (inactive) | > 100 µM (inactive) | 50.6 µM (inactive) | > 100 µM (inactive) | > 100 µM (inactive) | > 100 µM (inactive) | > 100 µM (inactive) | > 100 | > 100 µM (inactive) | > 100 µM (inactive) | > 100 µM (inactive) | > 100 µM (inactive) | > 100 µM (inactive) | – | – | – | – |
| CCOc1ccc(/C=N/[N+](C)(C)C)cc1OCC | > 10 µM (inactive) | – | > 10 µM (inactive) | > 10 µM (inactive) | > 10 µM (inactive) | > 10 µM (inactive) | > 10 µM (inactive) | > 10 µM (inactive) | – | > 10 µM (inactive) | > 10 | > 10 µM (inactive) | > 10 µM (inactive) | > 10 µM (inactive) | – | – | > 10 µM (inactive) | > 10 µM (inactive) | > 10 µM (inactive) | – |
| COC1CC2CCC(C)[C@](O)(O2)C(=O)C(=O)N2CCCCC2C(=O)OC(C(C)CC2CCC(O)C(OC)C2)CC(=O)C(C)C=C(C)C(OC(=O)CN(C)C)C(OC)C(=O)C(C)CC(C)/C=C/C=C/C=C\1C (some centres not stated) | – | 6.22 µM (inactive) | 9.59 µM (inactive) | < 0.01 µM (active) | < 0.01 µM (active) | 3.78 µM (inactive) | – | 5.87 µM (inactive) | < 0.01 µM (active) | 11.3 µM (inactive) | 10.4 | 3.67 µM (inactive) | 2.69 µM (inactive) | < 0.01 µM (active) | < 0.01 µM (active) | 10.3 µM (inactive) | < 0.01 µM (active) | – | 10.9 µM (inactive) | < 0.01 µM (active) |
| COc1cc2c(cc1OC)[C@H]1CN3CCC[C@H]3C=C1c1ccc(OC)c(O)c1-2 | < 0.0001 µM (active) | 0.000558 µM (active) | 0.000519 µM (active) | < 0.0001 µM (active) | < 0.0001 µM (active) | 0.000539 µM (active) | – | 0.000452 µM (active) | 0.00667 µM (active) | 0.000681 µM (active) | 0.000549 | 0.00378 µM (active) | 0.00264 µM (active) | 0.00031 µM (active) | 0.000959 µM (active) | 0.000736 µM (active) | < 0.0001 µM (active) | 0.000531 µM (active) | 0.000553 µM (active) | < 0.0001 µM (active) |
| CCOC(=O)c1[nH]c(COC(C)=O)c2c1CCCCCCCCCC2 | > 100 µM (inactive) | > 100 µM (inactive) | > 100 µM (inactive) | > 100 µM (inactive) | > 100 µM (inactive) | > 100 µM (inactive) | – | > 100 µM (inactive) | > 100 µM (inactive) | > 100 µM (inactive) | > 100 | – | – | > 100 µM (inactive) | > 100 µM (inactive) | > 100 µM (inactive) | > 100 µM (inactive) | > 100 µM (inactive) | > 100 µM (inactive) | > 100 µM (inactive) |
| OCC[N+]12CCCN1CCC2 | > 100 µM (inactive) | > 100 µM (inactive) | > 100 µM (inactive) | > 100 µM (inactive) | > 100 µM (inactive) | > 100 µM (inactive) | – | > 100 µM (inactive) | > 100 µM (inactive) | > 100 µM (inactive) | > 100 | – | – | > 100 µM (inactive) | > 100 µM (inactive) | > 100 µM (inactive) | > 100 µM (inactive) | > 100 µM (inactive) | > 100 µM (inactive) | > 100 µM (inactive) |
| CNc1nc(N)nc(Nc2ccc(I)cc2)c1N=O | – | > 100 µM (inactive) | > 100 µM (inactive) | > 100 µM (inactive) | 48 µM (inactive) | 96.2 µM (inactive) | > 100 µM (inactive) | > 100 µM (inactive) | 57.4 µM (inactive) | 85.3 µM (inactive) | > 100 | > 100 µM (inactive) | > 100 µM (inactive) | – | 27 µM (inactive) | – | > 100 µM (inactive) | > 100 µM (inactive) | > 100 µM (inactive) | – |
| COc1cccc(OC)c1/C=N\N1C(=O)c2ccccc2C1=O | 38.5 µM (inactive) | 43.2 µM (inactive) | 36.6 µM (inactive) | > 100 µM (inactive) | 34.6 µM (inactive) | 52.1 µM (inactive) | – | 33.5 µM (inactive) | 26.7 µM (inactive) | > 100 µM (inactive) | 32.1 | – | – | 49 µM (inactive) | 55.2 µM (inactive) | > 100 µM (inactive) | > 100 µM (inactive) | 57.1 µM (inactive) | 38.5 µM (inactive) | > 100 µM (inactive) |
| CCCCCCCC(=O)OC(CBr)COC(=O)C(C)(C)C (configuration not stated) | > 100 µM (inactive) | > 100 µM (inactive) | > 100 µM (inactive) | > 100 µM (inactive) | > 100 µM (inactive) | > 100 µM (inactive) | – | > 63.4 µM (inactive) | > 100 µM (inactive) | > 100 µM (inactive) | > 100 | – | – | > 95.1 µM (inactive) | > 100 µM (inactive) | > 100 µM (inactive) | > 100 µM (inactive) | > 100 µM (inactive) | > 100 µM (inactive) | > 100 µM (inactive) |
| O=C(Cn1cc(-c2ccccc2)nn1)NC1CCCCC1 | > 100 µM (inactive) | > 100 µM (inactive) | > 100 µM (inactive) | > 100 µM (inactive) | – | > 100 µM (inactive) | > 100 µM (inactive) | > 100 µM (inactive) | – | > 100 µM (inactive) | > 100 | > 100 µM (inactive) | > 100 µM (inactive) | > 100 µM (inactive) | – | > 100 µM (inactive) | > 100 µM (inactive) | > 100 µM (inactive) | > 100 µM (inactive) | – |
| c1ccc(CCN2CCN=C2Cc2ccccc2)cc1 | – | > 100 µM (inactive) | > 100 µM (inactive) | > 100 µM (inactive) | > 100 µM (inactive) | > 100 µM (inactive) | 90.4 µM (inactive) | > 100 µM (inactive) | > 100 µM (inactive) | > 100 µM (inactive) | > 100 | > 100 µM (inactive) | – | > 100 µM (inactive) | 99.1 µM (inactive) | > 100 µM (inactive) | > 100 µM (inactive) | > 100 µM (inactive) | > 100 µM (inactive) | > 100 µM (inactive) |
| C#CCN(N=O)C(=O)NCCCC(NC(C)=O)C(=O)NCc1ccccc1 (configuration not stated) | 54.6 µM (inactive) | 28.8 µM (inactive) | > 100 µM (inactive) | > 100 µM (inactive) | 81.7 µM (inactive) | > 100 µM (inactive) | – | 73.6 µM (inactive) | > 100 µM (inactive) | > 100 µM (inactive) | > 100 | – | – | > 100 µM (inactive) | > 100 µM (inactive) | > 100 µM (inactive) | > 100 µM (inactive) | > 100 µM (inactive) | > 100 µM (inactive) | > 100 µM (inactive) |
| O=C1C=C(Br)C(=O)C(Br)=C1 | > 100 µM (inactive) | > 100 µM (inactive) | > 100 µM (inactive) | > 100 µM (inactive) | > 100 µM (inactive) | > 100 µM (inactive) | – | > 84.9 µM (inactive) | > 100 µM (inactive) | > 100 µM (inactive) | > 79.8 | – | – | > 100 µM (inactive) | > 100 µM (inactive) | > 100 µM (inactive) | > 100 µM (inactive) | > 59.6 µM (inactive) | > 100 µM (inactive) | > 100 µM (inactive) |
| CC(=O)OCC1OC(n2c(N)c(C#N)c(C)c(C#N)c2=S)C(OC(C)=O)C(OC(C)=O)C1OC(C)=O (configuration not stated) | > 100 µM (inactive) | > 100 µM (inactive) | > 100 µM (inactive) | > 100 µM (inactive) | > 100 µM (inactive) | > 100 µM (inactive) | > 100 µM (inactive) | > 100 µM (inactive) | > 100 µM (inactive) | > 100 µM (inactive) | > 100 | – | > 100 µM (inactive) | > 100 µM (inactive) | > 100 µM (inactive) | > 100 µM (inactive) | > 100 µM (inactive) | > 100 µM (inactive) | > 100 µM (inactive) | > 100 µM (inactive) |
| COc1cc(/C=C\c2ccccc2)cc(OC)c1OC | 4.36 µM (inactive) | 2.55 µM (inactive) | 4.04 µM (inactive) | 6.08 µM (inactive) | 2.49 µM (inactive) | 3.08 µM (inactive) | – | 4.78 µM (inactive) | 1.84 µM (inactive) | 5.14 µM (inactive) | 2.6 | – | – | 6.46 µM (inactive) | 4.46 µM (inactive) | 4.2 µM (inactive) | 2.9 µM (inactive) | 5 µM (inactive) | 4.13 µM (inactive) | 5.24 µM (inactive) |
| COc1ccc(C(=O)c2nc3ccccc3nc2N2CCN(c3ccccc3)CC2)cc1OC | > 100 µM (inactive) | > 100 µM (inactive) | > 100 µM (inactive) | > 100 µM (inactive) | > 100 µM (inactive) | > 100 µM (inactive) | > 100 µM (inactive) | > 100 µM (inactive) | > 100 µM (inactive) | > 100 µM (inactive) | > 100 | – | > 100 µM (inactive) | > 100 µM (inactive) | > 100 µM (inactive) | – | > 100 µM (inactive) | – | > 100 µM (inactive) | > 100 µM (inactive) |
